According to paper PMC10683025, “Discovery of a Hydroxylamine-Based Brain-Penetrant EGFR Inhibitor for Metastatic Non-Small-Cell Lung Cancer” (Journal of Medicinal Chemistry, 2023):
Like-named read-outs stand apart in the source and are kept apart here.

Tests used:
Plasma stability [1] = assay type: in vitro ADME, Sprague-Dawley rat; conditions: rat plasma
Protocol: (§1) Assessment of compounds to determine stability in incubations containing plasma of human (Pharmaron) and Sprague-Dawley rat (IPHASE) was performed by Pharmaron, Inc. using the compound […] approach. Compounds were assessed in duplicate (n = 2) and incubated in plasma at 5 μM and samples (50 μL) were taken at 0, 15, 30, 60, and 120 min time points for analysis by LC-MS/MS. Peak area ratios were determined from the extracted ion chromatogram and the percent compound remaining at each time point was calculated by the following equation: [drawing 2] where peak area ratiot min is the peak area ratio of control and test compound at t min and peak area ratio0 min is the peak area ratio of control and test compound at zero time point.

Caco-2 permeability = assay type: in vitro ADME; conditions: human; for efflux ratio at 2 h, 5 μM / Papp A→B at 2 h, 5 μM / Papp B→A at 2 h, 5 μM: Caco-2; for recovery at 2 h, 5 μM: Caco-2, Caco-2
Protocol: (§4) A 96-well HTS Transwell plate (Corning) was used for Caco-2 and MDCKII-MDR1 cell seeding. […] Plates were incubated at 37 °C for 2 h, and samples (50 μL) were taken at the beginning and end of the incubation in both the donor and acceptor wells with the assay run in duplicate (n = 2). Samples were analyzed by LC-MS/MS.
(§5) The efflux ratio was determined by using the following equation: [drawing 4] where Papp (B–A) indicates the apparent permeability in the basolateral to apical direction and Papp (A–B) indicates the apparent permeability in the apical to basolateral direction.

MDCKII-MDR1 permeability = assay type: in vitro ADME, canine; conditions: dog, MDCK-MDR1, MDCKII-MDR1
Protocol: as §4, §5

MDR1 = test: MDCKII-MDR1 permeability; assay type: in vitro ADME, canine; conditions: dog, MDCK-MDR1
Protocol: as §4, §5

P-gp and BCRP = tested on: P-gp and BCRP; parameters: method as in ref 17−20; conditions: ref 17−20; cited from earlier work
TA100 = tested on: TA100; parameters: species or system Salmonella;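 for Count (# of wells): Revertant-positive wells among 48 replicate wells per concentration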
Protocol: (§2) Compounds were assessed for mutagenicity at the Eurofins Panlabs in 384-well plates using four Salmonella strains: TA98, to probe for frameshift mutation (with quercetin as control), TA100 and TA1535, to probe for base pair insertions/deletions (with streptozotocin as control), and TA1537, to probe for frameshift mutations (with aminacridine as control) as previously described.[78] […] A concurrent bacterial cytotoxicity assay was run at 0.6, 1.2, 2.5, 5, 10, 25, 50, and 100 μM to rule out false negatives. Bacterial cytotoxicity was expressed as percent of control growth (OD650). Compounds with growth of less than 60% control were flagged and considered bacterial cytotoxic. […] Significances of the positive counts between the treatment and control were determined using a one-tailed Fisher’s exact test.

TA1537 = tested on: TA1537; parameters: species or system Salmonella;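 for Count (# of wells): Revertant-positive wells among 48 replicate wells per concentration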
Protocol: as §2

TA98 = tested on: TA98; parameters: species or system Salmonella;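 for Count (# of wells): Revertant-positive wells among 48 replicate wells per concentration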
Protocol: as §2

TA1535 = tested on: TA1535; parameters: species or system Salmonella
Plasma stability [2] = assay type: in vitro ADME, human; conditions: human plasma
Protocol: as §1

[3] = Brain tissue binding by equilibrium dialysis; assay type: in vitro ADME; conditions: rat
Protocol: (§3) Plasma protein binding and brain tissue binding were determined by Pharmaron, Inc. using the equilibrium dialysis method. […] Following incubation, the samples were analyzed by LC-MS/MS and the concentrations of the compounds were determined in the buffer and plasma solution chambers.

[4] = Brain tissue binding by equilibrium dialysis; assay type: in vitro ADME, mouse; conditions: CD-1, mouse
Protocol: as §3

CC[C@H](C)C(=O)O[C@H]1C[C@@H](C)C=C2C=C[C@H](C)[C@H](CC[C@@H]3C[C@@H](O)CC(=O)O3)[C@H]21 [Mevinolin, reference compound]
half-life at 5 μM (Plasma stability [1]; Sprague-Dawley, ∞ = no degradation): 2.49 min | Remaining Percentages (Plasma stability [1]; 15 min): 1.54% | Remaining Percentages (Plasma stability [1]; 30 min): 0.42% | Remaining Percentages (Plasma stability [1]; 60 min): 0.30% | Remaining Percentages (Plasma stability [1]; 120 min): 0.27%

C[C@H]1O[C@@H](O[C@H]2[C@@H](O)C[C@H](O[C@H]3[C@@H](O)C[C@H](O[C@H]4CC[C@@]5(C)[C@H](CC[C@@H]6[C@@H]5C[C@@H](O)[C@]5(C)[C@@H](C7=CC(=O)OC7)CC[C@]65O)C4)O[C@@H]3C)O[C@@H]2C)C[C@H](O)[C@@H]1O [Digoxin, reference compound]
efflux ratio at 2 h, 5 μM (Caco-2 permeability): 50.1 | recovery at 2 h, 5 μM (Caco-2 permeability; read-out: Recovery% (AP-BL)): 108% | recovery at 2 h, 5 μM (Caco-2 permeability; read-out: Recovery% (BL-AP)): 96.2% | Papp A→B at 2 h, 5 μM (Caco-2 permeability): 0.27 ×10⁻⁶ cm/s | Papp B→A at 2 h, 5 μM (Caco-2 permeability): 13.4 ×10⁻⁶ cm/s | recovery at 2 h, 1 μM (MDCKII-MDR1 permeability; read-out: Recovery% (AP-BL)): 98.8% | recovery at 2 h, 1 μM (MDCKII-MDR1 permeability; read-out: Recovery% (BL-AP)): 100% | efflux ratio at 2 h, 1 μM (MDR1): 40.6 | Papp A→B at 2 h, 1 μM (MDR1): 0.25 ×10⁻⁶ cm/s | Papp B→A at 2 h, 1 μM (MDR1): 10.2 ×10⁻⁶ cm/s

COCCc1ccc(OCC(O)CNC(C)C)cc1 (centres unmarked) [Metoprolol, reference compound]
efflux ratio at 2 h, 5 μM (Caco-2 permeability): 0.89 | recovery at 2 h, 5 μM (Caco-2 permeability; read-out: Recovery% (AP-BL)): 97.4% | recovery at 2 h, 5 μM (Caco-2 permeability; read-out: Recovery% (BL-AP)): 98.4% | Papp A→B at 2 h, 5 μM (Caco-2 permeability): 24.9 ×10⁻⁶ cm/s | Papp B→A at 2 h, 5 μM (Caco-2 permeability): 22.2 ×10⁻⁶ cm/s | recovery at 2 h, 1 μM (MDCKII-MDR1 permeability; read-out: Recovery% (AP-BL)): 105% | recovery at 2 h, 1 μM (MDCKII-MDR1 permeability; read-out: Recovery% (BL-AP)): 98.4% | efflux ratio at 2 h, 1 μM (MDR1): 0.81 | Papp A→B at 2 h, 1 μM (MDR1): 25.9 ×10⁻⁶ cm/s | Papp B→A at 2 h, 1 μM (MDR1): 20.9 ×10⁻⁶ cm/s

C#Cc1cccc(Nc2ncnc3cc(OCCOC)c(OCCOC)cc23)c1 [Erlotinib]
efflux status against common efflux transporters (P-gp and BCRP): P-gp and BCRP Substrate

Nc1ccc2cc3ccccc3cc2c1 [2-Aminoanthracene, reference compound]
Count (# of wells) (TA100; TA100+S9, 1.0E-06 M): 21 | Count (# of wells) (TA100; TA100-S9, 5.0E-06 M): 4 | Positive Significance (- to +++) (TA100; TA100-S9, 5.0E-06 M): - | Count (# of wells) (TA1537; TA1537+S9, 1.0E-05 M): 14 | Positive Significance (- to +++) (TA1537; TA1537+S9, 1.0E-05 M): ++ (strong positive, if P < 0.01 (denoted as “++”)) | Count (# of wells) (TA1537; TA1537-S9, 5.0E-06 M): 1 | Positive Significance (- to +++) (TA1537; TA1537-S9, 5.0E-06 M): - | Count (# of wells) (TA98; TA98+S9, 2.0E-06 M): 47 | Count (# of wells) (TA98; TA98-S9, 5.0E-06 M): 1 | Positive Significance (- to +++) (TA98; TA98-S9, 5.0E-06 M): - | Count (# of wells) (TA1535; TA1535+S9, 5.0E-06 M): 15

COc1cc2ncnc(Nc3ccc(F)c(Cl)c3)c2cc1NC(=O)/C=C/CN1CCCCC1 [Dacomitinib]
efflux status against common efflux transporters (P-gp and BCRP): P-gp and BCRP Substrate

CN(C)C/C=C/C(=O)Nc1cc2c(Nc3ccc(F)c(Cl)c3)ncnc2cc1O[C@H]1CCOC1 [Afatinib]
efflux status against common efflux transporters (P-gp and BCRP): P-gp and BCRP Substrate

C=CC(=O)Nc1cc(Nc2nccc(-c3cn(C)c4ccccc34)n2)c(OC)cc1N(C)CCN(C)C [Osimertinib]
efflux status against common efflux transporters (P-gp and BCRP): Moderate P-gp and BCRP Substrate

O=c1c(O)c(-c2ccc(O)c(O)c2)oc2cc(O)cc(O)c12 [Quercetin, reference compound]
Count (# of wells) (TA100; TA100+S9, 1.0E-05 M): 5 | Positive Significance (- to +++) (TA100; TA100+S9, 1.0E-05 M): - | Count (# of wells) (TA100; TA100-S9, 1.0E-05 M): 1 | Count (# of wells) (TA1537; TA1537+S9, 3.0E-05 M): 6 | Positive Significance (- to +++) (TA1537; TA1537+S9, 3.0E-05 M): - | Count (# of wells) (TA1537; TA1537-S9, 1.0E-05 M): 1 | Positive Significance (- to +++) (TA1537; TA1537-S9, 1.0E-05 M): - | Count (# of wells) (TA98; TA98+S9, 1.0E-05 M): 30 | Count (# of wells) (TA98; TA98-S9, 1.0E-05 M): 12 | Count (# of wells) (TA1535; TA1535+S9, 1.0E-05 M): 4 | Positive Significance (- to +++) (TA1535; TA1535+S9, 1.0E-05 M): -

Nc1c2ccccc2nc2ccccc12 [9-Aminoacridine, reference compound]
Count (# of wells) (TA100; TA100+S9, 1.0E-05 M): 3 | Positive Significance (- to +++) (TA100; TA100+S9, 1.0E-05 M): - | Count (# of wells) (TA100; TA100-S9, 1.0E-05 M): 2 | Positive Significance (- to +++) (TA100; TA100-S9, 1.0E-05 M): - | Count (# of wells) (TA1537; TA1537+S9, 1.0E-05 M): 17 | Count (# of wells) (TA1537; TA1537-S9, 1.0E-05 M): 11 | Positive Significance (- to +++) (TA1537; TA1537-S9, 1.0E-05 M): ++ (strong positive, if P < 0.01 (denoted as “++”)) | Count (# of wells) (TA98; TA98+S9, 1.0E-05 M): 1 | Positive Significance (- to +++) (TA98; TA98+S9, 1.0E-05 M): - | Count (# of wells) (TA98; TA98-S9, 1.0E-05 M): 0 | Positive Significance (- to +++) (TA98; TA98-S9, 1.0E-05 M): - | Count (# of wells) (TA1535; TA1535+S9, 1.0E-05 M): 0 | Positive Significance (- to +++) (TA1535; TA1535+S9, 1.0E-05 M): - | Count (# of wells) (TA1535; TA1535-S9, 1.0E-05 M): 1 | Positive Significance (- to +++) (TA1535; TA1535-S9, 1.0E-05 M): -

CC(C)[N+](C)(CCOC(=O)C1c2ccccc2Oc2ccccc21)C(C)C [Propantheline, reference compound]
Remaining Percentages (Plasma stability [2]; 15 min): 69.10% | Remaining Percentages (Plasma stability [2]; 30 min): 48.79% | Remaining Percentages (Plasma stability [2]; 60 min): 22.07% | Remaining Percentages (Plasma stability [2]; 120 min): 4.85% | half-life at 5 μM (Plasma stability [2]; ∞ = no degradation): 27.6 min

CCCc1nc2c(C)cc(-c3nc4ccccc4n3C)cc2n1Cc1ccc(-c2ccccc2C(=O)O)cc1 [Telmisartan, reference compound]
recovery at 6 h, 5 μM ([3]; Sprague-Dawley (SD), rat brain homogenate): 107% | fraction unbound at 6 h, 5 μM ([3]; Sprague-Dawley, brain homogenate, read-out: fu,brain% / %Unboundbrain): 0.0146 | remaining at 6 h, 5 μM ([3]; Sprague-Dawley, rat brain homogenate): 100% | fraction unbound at 6 h, 5 μM ([3]; Sprague-Dawley, rat brain homogenate, read-out: %Boundbrain (converted)): 0.0146 | fraction unbound at 6 h, 5 μM ([4]; brain homogenate, read-out: fu,brain% / %Unboundbrain): 0.0143 | recovery at 6 h, 5 μM ([4]; mouse brain homogenate): 109% | remaining at 6 h, 5 μM ([4]; mouse brain homogenate): 108% | fraction unbound at 6 h, 5 μM ([4]; mouse brain homogenate, read-out: %Unboundbrain (converted)): 0.0143

CN(N=O)C(=O)N[C@H]1C(O)O[C@H](CO)[C@@H](O)[C@@H]1O (mixture of isomers) [Streptozotocin, reference compound]
Count (# of wells) (TA100; TA100+S9, 2.5E-06 M): 39 | Count (# of wells) (TA100; TA100-S9, 2.5E-06 M): 42 | Count (# of wells) (TA1537; TA1537+S9, 2.5E-06 M): 7 | Positive Significance (- to +++) (TA1537; TA1537+S9, 2.5E-06 M): - | Count (# of wells) (TA1537; TA1537-S9, 2.5E-06 M): 2 | Positive Significance (- to +++) (TA1537; TA1537-S9, 2.5E-06 M): - | Count (# of wells) (TA98; TA98+S9, 2.5E-06 M): 2 | Positive Significance (- to +++) (TA98; TA98+S9, 2.5E-06 M): - | Count (# of wells) (TA98; TA98-S9, 2.5E-06 M): 1 | Positive Significance (- to +++) (TA98; TA98-S9, 2.5E-06 M): - | Count (# of wells) (TA1535; TA1535+S9, 2.5E-06 M): 48 | Count (# of wells) (TA1535; TA1535-S9, 2.5E-06 M): 2 | Positive Significance (- to +++) (TA1535; TA1535-S9, 2.5E-06 M): -
